Source: PMC4450062, “A Membrane-bound eIF2 Alpha Kinase Located in Endosomes Is Regulated by Heme and Controls Differentiation and ROS Levels in Trypanosoma cruzi” (PLoS Pathogens, 2015)

Target: T1, GST-TcK2 (kinase domain of TcK2, T. cruzi K2) (Trypanosoma cruzi, UniProt Q4E5B6)
T1 construct: gene Tc00.1047053506559.129; N-terminal GST fusion (pGEX5X-1), GST kept, 68 kDa; E. coli BL21; transmembrane and N-terminal domains absent
T1 sequence (Q4E5B6 638-984): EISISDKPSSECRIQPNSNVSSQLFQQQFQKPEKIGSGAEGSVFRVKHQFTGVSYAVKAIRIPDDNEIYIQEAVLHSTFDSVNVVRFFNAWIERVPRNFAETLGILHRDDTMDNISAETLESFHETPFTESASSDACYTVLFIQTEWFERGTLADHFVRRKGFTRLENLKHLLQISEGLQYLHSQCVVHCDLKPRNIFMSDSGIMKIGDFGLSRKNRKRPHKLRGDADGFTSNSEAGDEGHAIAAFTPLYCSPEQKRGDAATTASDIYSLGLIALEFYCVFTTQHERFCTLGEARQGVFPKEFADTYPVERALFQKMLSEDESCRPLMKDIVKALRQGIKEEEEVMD
Assay: Soret absorbance titration at […] nm
Format: binding
Conditions: 0.1 M Tris-HCl pH 7.4, 50 mM NaCl, 25 °C, 30 min incubation; 5 μg/ml protein; GST alone shows no Soret band; read-out: Kd^app

C=CC1=C(C)C2=Cc3c(C=C)c(C)c4[n]3[Fe]([Cl])[n]3c(c(C)c(CCC(=O)O)c3=CC3=NC(=C4)C(C)=C3CCC(=O)O)=CC1=N2 [hemin]
Kd: 2800 ± 600 nM
